Data: patent publication US8889696B2, “Substituted pyrido[2,3-d]pyrimidin-7(8H)-ones and therapeutic uses thereof” (Temple University—Of The Commonwealth System Of Higher …, priority 2009, dated 2014)

Columns and labels:
[1] = tested on: K562 (chronic myelogenous leukemia); test: Effect on tumor cell lines (Latham assay), K562; format: cell-based; conditions: Homo sapiens; K562 cells, examined 96 hours after treatment; read-out: Potencies (IC50) K 562
Experimental: (§1) The plated cells were treated 24 hours later with a compound of the invention dissolved in DMSO at multiple concentrations ranging from 0.01 μM to 100 μM. […] When necessary, the total number of viable cells was determined by trypsinizing the wells and counting the number of viable cells, as determined by trypan blue exclusion, using a hemacytometer.

DU145 (prostate cancer) = test: Effect on tumor cell lines (Latham assay), DU145; format: cell-based; conditions: Homo sapiens, DU-145; DU145 cells, examined 96 hours after treatment; read-out: Potencies (IC50) DU 145
Experimental: as §1

| SMILES | IC50 [1] [µM] | IC50 (DU145 (prostate cancer)) [µM] | melting point [°C] |
| --- | --- | --- | --- |
| Cn1c(=O)c(S(=O)(=O)c2ccccc2)cc2cnc(Nc3ccc4cc[nH]c4c3)nc21 [Example 25, 2-(1H-indol-6-ylamino)-8-methyl-6-(phenylsulfonyl)pyrido[2,3-d]pyrimidin-7(8H)-one] | 25 to 50 | 25 to 50 | > 350 |
| COC(=O)c1ccc(S(=O)(=O)c2cc3cnc(Nc4ccc5[nH]ccc5c4)nc3n(C)c2=O)cc1 [Example 26, methyl 4-(2-(1H-indol-5-ylamino)-7,8-dihydro-8-methyl-7-oxopyrido[2,3-d]pyrimidin-6-ylsulfonyl)benzoate] | 1 to 10 | 1 to 10 | 305 to 310 |
| Cc1ccc(S(=O)(=O)c2cc3cnc(Nc4ccc5c(c4)CC(=O)N5)nc3n(C)c2=O)cc1 [Example 27, 2-(2-oxoindolin-5-ylamino)-8-methyl-6-tosylpyrido[2,3-d]pyrimidin-7(8H)-one] | 25 to 50 | 50 to 100 | 280 |
| Cn1c(=O)c(S(=O)(=O)c2ccc(F)c(Cl)c2)cc2cnc(Nc3cnc4[nH]ccc4c3)nc21 [Example 35, 2-(1H-pyrrolo[2,3-b]pyridin-5-ylamino)-6-(3-chloro-4-fluorophenylsulfonyl)-8-methylpyrido[2,3-d]pyrimidin-7(8H)-one] | < 1 | < 1 | 320 to 325 |
| Cn1c(=O)c(S(=O)(=O)c2ccc(C(=O)O)cc2)cc2cnc(Nc3ccc4[nH]ccc4c3)nc21 [Example 37, 4-(2-(1H-indol-5-ylamino)-7,8-dihydro-8-methyl-7-oxopyrido[2,3-d]pyrimidin-6-ylsulfonyl)benzoic acid] | 10 to 25 | 10 to 25 | 262 to 265 |
| CCCn1c(=O)c(S(=O)(=O)c2ccccc2)cc2cnc(Nc3ccc4cc[nH]c4c3)nc21 [Example 44, 2-(1H-indol-6-ylamino)-6-(phenylsulfonyl)-8-propylpyrido[2,3-d]pyrimidin-7(8H)-one] | 1 to 10 | 1 to 10 | 272 to 273 |
| CCCn1c(=O)c(S(=O)(=O)c2ccccc2)cc2cnc(Nc3ccc4[nH]ccc4c3)nc21 [Example 47, 2-(1H-indol-5-ylamino)-6-(phenylsulfonyl)-8-propylpyrido[2,3-d]pyrimidin-7(8H)-one] | < 1 | 1 to 10 | 293 to 295 |
| CCCn1c(=O)c(S(=O)(=O)c2ccccc2)cc2cnc(SC)nc21 [Example 48, 2-(methylsulfanyl)-6-(phenylsulfonyl)-8-propylpyrido[2,3-d]pyrimidin-7(8H)-one] | 50 to 100 | > 100 | 231 to 232 |
| CN1CCN(c2ccc(Nc3ncc4cc(S(=O)(=O)c5ccc(Cl)cc5)c(=O)n(C5CCCCC5)c4n3)cc2)CC1 [Example 50, 2-(4-(4-methylpiperazin-1-yl)phenylamino)-6-(4-chlorophenylsulfonyl)-8-cyclohexylpyrido[2,3-d]pyrimidin-7(8H)-one] | 1 to 10 | 1 to 10 | 259 to 260 |
| O=c1c(S(=O)(=O)c2ccc(Cl)cc2)cc2cnc(Nc3ccc4[nH]ccc4c3)nc2n1C1CCCCC1 [Example 51, 2-(1H-indol-5-ylamino)-6-(4-chlorophenylsulfonyl)-8-cyclohexylpyrido[2,3-d]pyrimidin-7(8H)-one] | 10 to 25 | 25 to 50 | 305 to 307 |
| O=c1c(S(=O)(=O)c2ccc(Cl)cc2)cc2cnc(Nc3ccc(N4CCOCC4)cc3)nc2n1C1CCCCC1 [Example 52, 6-(4-chlorophenylsulfonyl)-2-(4-morpholinophenylamino)-8-cyclohexylpyrido[2,3-d]pyrimidin-7(8H)-one] | 1 to 10 | 10 to 25 | 329 to 331 |
| CCn1c(=O)c(S(=O)(=O)c2ccccc2)cc2cnc(Nc3ccc4[nH]ccc4c3)nc21 [Example 54, 2-(1H-indol-5-ylamino)-8-ethyl-6-(phenylsulfonyl)pyrido[2,3-d]pyrimidin-7(8H)-one] | < 1 | 1 to 10 | > 400 |
| O=c1c(S(=O)(=O)c2ccccc2)cc2cnc(Nc3ccc4[nH]ccc4c3)nc2n1C1CCCC1 [Example 55, 2-(1H-indol-5-ylamino)-8-cyclopentyl-6-(phenylsulfonyl)pyrido[2,3-d]pyrimidin-7(8H)-one] | 1 to 10 | 1 to 10 | 272 to 273 |
| COc1ccc(Nc2ncc3cc(S(=O)(=O)c4ccccc4)c(=O)n(C4CCCC4)c3n2)cc1 [Example 56, 2-(4-methoxyphenylamino)-8-cyclopentyl-6-(phenylsulfonyl)pyrido[2,3-d]pyrimidin-7(8H)-one] | 1 to 10 | 25 to 50 | 201 |
| O=c1c(S(=O)(=O)c2ccccc2)cc2cnc(N3CCN(c4ccc(C(F)(F)F)cn4)CC3)nc2n1C1CCCC1 [Example 57, 8-cyclopentyl-2-(4-(5-(trifluoromethyl)pyridin-2-yl)piperazin-1-yl)-6-(phenylsulfonyl)pyrido[2,3-d]pyrimidin-7(8H)-one] | 50 to 100 | 25 to 50 | 258 to 259 |
| CSc1ncc2cc(S(=O)(=O)c3ccc(Cl)cc3)c(=O)n(C3CCCC3)c2n1 [Example 60, 6-(4-chlorophenylsulfonyl)-8-cyclopentyl-2-(methylsulfanyl)pyrido[2,3-d]pyrimidin-7(8H)-one] | 50 to 100 | 50 to 100 | 222 to 223 |
| O=c1c(S(=O)(=O)c2ccccc2)cc2cnc(NC3CCCC3)nc2n1C1CCCC1 [Example 61, 8-cyclopentyl-2-(cyclopentylamino)-6-(phenylsulfonyl)pyrido[2,3-d]pyrimidin-7(8H)-one] | > 100 | > 100 | 209 to 210 |
| COc1cc(Nc2ncc3cc(S(=O)(=O)c4ccccc4)c(=O)n(C4CCCC4)c3n2)cc(OC)c1OC [Example 62, 2-(3,4,5-trimethoxyphenylamino)-8-cyclopentyl-6-(phenylsulfonyl)pyrido[2,3-d]pyrimidin-7(8H)-one] | 1 to 10 | 1 to 10 | 119 to 120 |
| O=c1c(S(=O)(=O)c2ccccc2)cc2cnc(Nc3ccc(N4CCOCC4)cc3)nc2n1C1CCCC1 [Example 63, 2-(4-morpholinophenylamino)-8-cyclopentyl-6-(phenylsulfonyl)pyrido[2,3-d]pyrimidin-7(8H)-one] | 10 to 25 | 10 to 25 | 221 to 222 |

Results, then the compound that gave them:

| IC50 [1] [µM] | IC50 (DU145 (prostate cancer)) [µM] | melting point [°C] | SMILES |
| --- | --- | --- | --- |
| 10 to 25 | 10 to 25 | 334 to 336 | Cc1ccc(S(=O)(=O)c2cc3cnc(Nc4ccc5cc[nH]c5c4)nc3n(C)c2=O)cc1 [Example 28, 2-(1H-indol-6-ylamino)-8-methyl-6-tosylpyrido[2,3-d]pyrimidin-7(8H)-one] |
| < 1 | < 1 | 260 to 262 | COc1ccc(S(=O)(=O)c2cc3cnc(Nc4ccc5[nH]ccc5c4)nc3n(C)c2=O)cc1 [Example 29, 2-(1H-indol-5-ylamino)-6-(4-methoxyphenylsulfonyl)-8-methylpyrido[2,3-d]pyrimidin-7(8H)-one] |
| 1 to 10 | 1 to 10 | 289 to 292 | COc1ccc(S(=O)(=O)c2cc3cnc(Nc4cccc5[nH]ccc45)nc3n(C)c2=O)cc1 [Example 30, 2-(1H-indol-4-ylamino)-6-(4-methoxyphenylsulfonyl)-8-methylpyrido[2,3-d]pyrimidin-7(8H)-one] |
| 1 to 10 | 1 to 10 | 320 to 324 | Cn1c(=O)c(S(=O)(=O)c2ccc(Cl)cc2)cc2cnc(Nc3cccc4[nH]ccc34)nc21 [Example 31, 2-(1H-indol-4-ylamino)-6-(4-chlorophenylsulfonyl)-8-methylpyrido[2,3-d]pyrimidin-7(8H)-one] |
| 1 to 10 | 1 to 10 | 296 to 298 | Cn1c(=O)c(S(=O)(=O)c2ccc(Cl)cc2)cc2cnc(Nc3cnc4[nH]ccc4c3)nc21 [Example 32, 2-(1H-pyrrolo[2,3-b]pyridin-5-ylamino)-6-(4-chlorophenylsulfonyl)-8-methylpyrido[2,3-d]pyrimidin-7(8H)-one] |
| < 1 | 1 to 10 | 250 to 255 | Cn1c(=O)c(S(=O)(=O)c2ccc(F)c(Cl)c2)cc2cnc(Nc3ccc4[nH]ccc4c3)nc21 [Example 33, 2-(1H-indol-5-ylamino)-6-(3-chloro-4-fluorophenylsulfonyl)-8-methylpyrido[2,3-d]pyrimidin-7(8H)-one] |
| 50 to 100 | 50 to 100 | 315 to 320 | Cn1c(=O)c(S(=O)(=O)c2ccc(F)c(Cl)c2)cc2cnc(Nc3cccc4[nH]ccc34)nc21 [Example 34, 2-(1H-indol-4-ylamino)-6-(3-chloro-4-fluorophenylsulfonyl)-8-methylpyrido[2,3-d]pyrimidin-7(8H)-one] |
| 1 to 10 | 10 to 25 | 260 to 261 | CCCn1c(=O)c(S(=O)(=O)c2ccccc2)cc2cnc(Nc3cccc4[nH]ccc34)nc21 [Example 45, 2-(1H-indol-4-ylamino)-6-(phenylsulfonyl)-8-propylpyrido[2,3-d]pyrimidin-7(8H)-one] |
| 10 to 25 | > 100 | 300 to 302 | O=c1c(S(=O)(=O)c2ccc(Cl)cc2)cc2cnc(Nc3cccc4[nH]ccc34)nc2n1C1CCCCC1 [Example 53, 2-(1H-indol-4-ylamino)-6-(4-chlorophenylsulfonyl)-8-cyclohexylpyrido[2,3-d]pyrimidin-7(8H)-one] |
